We go through four compounds from patent US20260102501A1, “ANTI-CANCER NUCLEAR HORMONE RECEPTOR-TARGETING COMPOUNDS” (Nuvation Bio Inc., priority 2022, published 2026).

As a reminder, the IC50 is the concentration at which inhibition is half-maximal.

Assay [1] concerns the target T1, Progesterone PR-B receptors from human breast carcinoma T47D cells (Homo sapiens, UniProt P06401).
T1 sequence (P06401 1-933): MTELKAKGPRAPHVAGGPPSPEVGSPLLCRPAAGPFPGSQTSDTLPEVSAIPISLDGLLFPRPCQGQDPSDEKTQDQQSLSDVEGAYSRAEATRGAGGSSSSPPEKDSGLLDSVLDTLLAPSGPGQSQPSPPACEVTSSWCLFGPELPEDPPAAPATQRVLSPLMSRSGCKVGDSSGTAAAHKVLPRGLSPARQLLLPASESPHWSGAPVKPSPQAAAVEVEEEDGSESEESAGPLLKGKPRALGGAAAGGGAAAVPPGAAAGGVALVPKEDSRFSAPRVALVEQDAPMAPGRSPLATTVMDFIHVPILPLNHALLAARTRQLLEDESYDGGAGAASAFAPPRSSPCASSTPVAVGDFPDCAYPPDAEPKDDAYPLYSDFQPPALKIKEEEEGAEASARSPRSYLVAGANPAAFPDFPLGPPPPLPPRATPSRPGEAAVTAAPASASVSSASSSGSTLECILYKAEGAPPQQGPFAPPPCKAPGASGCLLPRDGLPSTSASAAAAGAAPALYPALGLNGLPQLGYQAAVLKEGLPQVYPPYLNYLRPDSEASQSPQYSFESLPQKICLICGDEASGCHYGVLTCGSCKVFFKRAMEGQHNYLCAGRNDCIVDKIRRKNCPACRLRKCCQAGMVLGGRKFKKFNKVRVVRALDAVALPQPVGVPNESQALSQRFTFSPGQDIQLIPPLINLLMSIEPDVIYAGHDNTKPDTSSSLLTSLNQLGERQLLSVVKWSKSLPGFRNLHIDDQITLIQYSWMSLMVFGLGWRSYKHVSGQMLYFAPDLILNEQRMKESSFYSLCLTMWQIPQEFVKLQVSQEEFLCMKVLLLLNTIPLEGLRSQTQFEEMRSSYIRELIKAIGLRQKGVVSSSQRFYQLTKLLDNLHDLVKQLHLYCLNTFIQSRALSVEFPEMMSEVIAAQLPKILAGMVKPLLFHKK
Description: PR binding assay ([3H] Progesterone displacement).

For assay [2], the system named is 22Rv1 cells. Description: Cell viability assay (CellTiterGlo). The settings on record: Homo sapiens, 22Rv1, 144 h, read-out: 22RV1 (IC50, nM). In general terms: In ATP-based viability assays light output follows the ATP content of the culture.
Assay [3] relates to IEC6 cells. Description: Cell viability assay (CellTiterGlo). Conditions: Rattus norvegicus, IEC-6, 144 h, read-out: IEC-6 (IC50, nM).
Assay [4] deals with T2, full-length androgen receptor (HEK293 cells stably expressing) (Homo sapiens, UniProt P10275).
T2 sequence (P10275 1-920): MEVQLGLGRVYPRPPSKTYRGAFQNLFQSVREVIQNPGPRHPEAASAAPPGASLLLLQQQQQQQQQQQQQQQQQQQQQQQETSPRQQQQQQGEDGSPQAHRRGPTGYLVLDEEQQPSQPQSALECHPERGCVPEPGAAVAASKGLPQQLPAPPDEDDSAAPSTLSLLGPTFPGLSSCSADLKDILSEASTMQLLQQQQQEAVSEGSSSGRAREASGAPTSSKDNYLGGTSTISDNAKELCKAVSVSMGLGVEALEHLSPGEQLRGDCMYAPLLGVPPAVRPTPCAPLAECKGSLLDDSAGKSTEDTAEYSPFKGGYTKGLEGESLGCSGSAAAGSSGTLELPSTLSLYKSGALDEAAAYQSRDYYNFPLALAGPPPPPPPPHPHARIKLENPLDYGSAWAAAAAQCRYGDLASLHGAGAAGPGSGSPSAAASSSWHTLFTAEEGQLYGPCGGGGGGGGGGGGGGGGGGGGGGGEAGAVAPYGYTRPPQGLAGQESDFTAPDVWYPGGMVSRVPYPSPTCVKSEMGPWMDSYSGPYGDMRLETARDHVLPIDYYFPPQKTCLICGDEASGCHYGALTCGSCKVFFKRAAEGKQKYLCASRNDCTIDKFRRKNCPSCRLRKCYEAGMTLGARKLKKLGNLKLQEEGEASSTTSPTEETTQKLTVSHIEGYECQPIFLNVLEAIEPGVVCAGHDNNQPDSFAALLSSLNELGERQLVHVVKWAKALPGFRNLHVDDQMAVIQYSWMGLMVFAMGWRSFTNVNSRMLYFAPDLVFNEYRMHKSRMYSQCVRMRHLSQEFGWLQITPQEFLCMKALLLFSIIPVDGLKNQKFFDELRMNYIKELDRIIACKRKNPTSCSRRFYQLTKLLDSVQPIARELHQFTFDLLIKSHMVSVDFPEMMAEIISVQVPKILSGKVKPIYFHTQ
Nature of the assay: AR antagonism assay (luciferase reporter).

Assay [5] concerns T47D cells. Nature of the assay: Cell viability assay (CellTiterGlo). The assay is classed as cell-based. Conditions: Homo sapiens, 144 h, 6 days incubation, CellTiterGlo, read-out: T47D (IC50).

Structures are written as SMILES. Structures can show the parent of a compound that is named as a salt.

Consider `CC[C@@]1(O)C(=O)OCc2c1cc1n(c2=O)Cc2cc3c(CN(C)C)c(OC(=O)N4CCN(CC5CCN(c6ccc(C(=O)N[C@H]7CC[C@H](Oc8ccc(C#N)c(Cl)c8C)CC7)nn6)CC5)CC4)ccc3nc2-1` [Compound 31, (S)-10-((Dimethylamino)methyl)-4-ethyl-4-hydroxy-3,14-dioxo-3,4,12,14-tetrahydro-1H-pyrano[3′,4′:6,7]indolizino[1,2-b]quinolin-9-yl 4-((1-(6-(((1r,4r)-4-(3-chloro-4-cyano-2-methylphenoxy)cyclohexyl)carbamoyl)pyridazin-3-yl)piperidin-4-yl)methyl)piperazine-1-carboxylate Formate], for which the IC50 in assay [1] is below 10 nM; in assay [2], 101 to 1000 nM; in assay [3], 101 to 1000 nM; in assay [4], above 1000 nM.
Take `CC[C@@]1(O)C(=O)OCc2c1cc1n(c2=O)Cc2cc3c(CN4CCN(C(=O)C5CCN(c6ccc(C(=O)N[C@H]7CC[C@H](Oc8ccc(C#N)c(Cl)c8C)CC7)nn6)CC5)CC4)c(OC(=O)N4C[C@H](C)N(C)C[C@H]4C)ccc3nc2-1` [Compound 30, (S)-10-((4-(1-(6-(((1r,4r)-4-(3-Chloro-4-cyano-2-methylphenoxy)cyclohexyl)carbamoyl)-pyridazin-3-yl)piperidine-4-carbonyl)piperazin-1-yl)methyl)-4-ethyl-4-hydroxy-3,14-dioxo-3,4,12,14-tetrahydro-1H-pyrano[3′,4′:6,7]indolizino[1,2-b]quinolin-9-yl (2R,5S)-2,4,5-trimethylpiperazine-1-carboxylate Formate]: the half-maximal inhibitory concentration (IC50) was below 10 nM in assay [1], 101 to 1000 nM in assay [2], above 1000 nM in assay [3] and above 1000 nM in assay [4].
For `CC[C@@]1(O)C(=O)OCc2c1cc1n(c2=O)Cc2cc3c(CN4CCN(CCCCCCN(C)c5ccc([C@H]6C[C@@]7(C)[C@@H](CC[C@]7(OC(C)=O)C(C)=O)[C@@H]7CCC8=CC(=O)CCC8=C76)cc5)CC4)c(O)ccc3nc2-1` [Compound 36, (8S,11R,13S,14S,17R)-17-acetyl-11-(4-((6-(4-(((S)-4-ethyl-4,9-dihydroxy-3,14-dioxo-3,4,12,14-tetrahydro-1H-pyrano[3′,4′:6,7]indolizino[1,2-b]quinolin-10-yl)methyl)piperazin-1-yl)hexyl)(methyl)amino)phenyl)-13-methyl-3-oxo-2,3,6,7,8,11,12,13,14,15,16,17-dodecahydro-1H-cyclopenta[a]phenanthren-17-yl acetate], the IC50 in assay [1] was below 10 nM; in assay [5], 10 to 100 nM; in assay [3] it was 101 to 1000 nM; in assay [4], 101 to 1000 nM.
`CC[C@@]1(O)C(=O)OCc2c1cc1n(c2=O)Cc2c-1nc1cc(F)c(C)c3c1c2[C@@H](NCC1CCN(CC2CCN(C(=O)CN(C)c4ccc([C@H]5C[C@@]6(C)[C@@H](CC[C@]6(OC(C)=O)C(C)=O)[C@@H]6CCC7=CC(=O)CCC7=C65)cc4)CC2)CC1)CC3` [Compound No. 51, (8S,11R,13S,14S,17R)-17-acetyl-11-(4-((2-(4-((4-((((1S,9S)-9-ethyl-5-fluoro-9-hydroxy-4-methyl-10,13-dioxo-2,3,9,10,13,15-hexahydro-1H,12H-benzo[de]pyrano[3′,4′:6,7]indolizino[1,2-b]quinolin-1-yl)amino)methyl)piperidin-1-yl)methyl)piperidin-1-yl)-2-oxoethyl)(methyl)amino)phenyl)-13-methyl-3-oxo-2,3,6,7,8,11,12,13,14,15,16,17-dodecahydro-1H-cyclopenta[a]phenanthren-17-yl acetate]: the IC50 in assay [1] was below 10 nM; in assay [2] it was 10 to 100 nM; in assay [3] it was 101 to 1000 nM; in assay [4] it was 10 to 100 nM.
